Like-named read-outs stand apart in the source and are kept apart here.
What was measured:
PC-3 cancer cells = experiment: Chemical library screen (JHDL), second stage, dose response matrix with decitabine; type: cell-based
Text: Cells were exposed to each dose of decitabine for four consecutive days prior to addition of each dose of the identified compounds for three consecutive days. […] FIG. 30 is a bar graph illustrating the Bliss Independence score values for the cells of the compounds identified.

[1] = system: DU145 prostate cancer cells; experiment: Alamar blue cell viability and growth, alisertib x decitabine dose matrix; type: cell-based; conditions: Aurora kinase inhibitor + decitabine
Description: DU145 prostate cancer cells and A549 lung cancer cells were treated with varying concentrations (0 nM, 10 nM, 50 nM, and 100 nM) of alisertib in addition to varying concentrations of decitabine (0 nM, 50 nM, 100 nM, and 250 nM). Representative data are shown in FIGS. 2A and 2B, as well as the Tables below. […] In each panel, a dose response of each drug alone and in combination was used in Alamar blue cell viability assays. […] Formal synergy analyses were performed using the Bliss independence score (where values greater than zero indicate greater than additive effect). […] The graph of FIG. 2A is a growth curve of the DU145 prostate cancer cells for the agents alone (decitabine and alisertib separately), a vehicle control, and the agents in combination (decitabine and alisertib together). […] Likewise, the graph of FIG. 2B is a growth curve of the A549 lung cancer cells for the agents alone (decitabine and alisertib separately), a vehicle control, and the agents in combination (decitabine and alisertib together). […] The synergy analysis of the combination of decitabine and alisertib was evaluated in a series of 18 cancer cell lines (9 prostate, 1 ovarian, 1 lung, 2 colon, 2 central nervous system, and 3 breast cancer cell lines) and 2 non-cancer cell models.

[2] = PC-3, decitabine 0-10 μM four days, then compound 0-10 μM three days

Structure (SMILES) | growth inhibition when combined with decitabine (Bliss independence score sum across all dose combinations greater than zero) (PC-3 cancer cells; [2]) | also measured
COc1ccc(C[C@H]2NC[C@H](O)[C@H]2OC(C)=O)cc1 [anisomycin] | synergistic growth inhibition | 
Cc1csc(-c2nnc(Nc3ccc(Oc4ncccc4-c4ccnc(N)n4)cc3)c3ccccc23)c1 [AMG-900] |  | growth inhibition of DU-145 cells in combination with decitabine [1]: synergistic growth inhibition
O=C(O)c1ccc(Nc2ncc3c(n2)-c2ccc(Cl)cc2C(c2c(F)cccc2F)=NC3)cc1 [MLN8054] |  | growth inhibition of DU-145 cells in combination with decitabine [1]: synergistic growth inhibition
CCCCCCCCCCCCCCCCn1cc[n+](Cc2ccccc2)c1C.[I-] [NH125] |  | growth inhibition when combined with decitabine (Bliss independence score sum across all dose combinations greater than zero) (PC-3 cancer cells): synergistic growth inhibition
Nc1ccc(-c2cccc3c(=O)cc(N4CCOCC4)oc23)cc1 [PI828] | synergistic growth inhibition | 
Nc1ccn([C@@H]2O[C@H](CO)[C@@H](O)[C@@H]2O)c(=O)n1 [cytarabine] | synergistic growth inhibition | 
Nc1ccn([C@@H]2O[C@H](CO)[C@@H](O)C2(F)F)c(=O)n1 [gemcitabine] | synergistic growth inhibition | 
C[C@]12CC[C@H]3[C@@H](CC[C@]4(O)C[C@@H](O)CC[C@]34C=O)[C@@]1(O)CC[C@@H]2C1=CC(=O)OC1 [strophanthidin] |  | growth inhibition when combined with decitabine (Bliss independence score sum across all dose combinations greater than zero) (PC-3 cancer cells): synergistic growth inhibition
CC(=O)O[C@@]12CO[C@@H]1C[C@H](O)[C@@]1(C)C(=O)[C@H](O)C3=C(C)[C@@H](OC(=O)[C@H](O)[C@@H](NC(=O)OC(C)(C)C)c4ccccc4)C[C@@](O)([C@@H](OC(=O)c4ccccc4)[C@H]21)C3(C)C [docetaxel] | synergistic growth inhibition | 
O=C1NC(=O)c2c1c1c3ccccc3n3c1c1c2c2ccccc2n1C1CCC3O1 [SB218078] | synergistic growth inhibition | 
CC[C@@]1(O)C[C@H](O[C@H]2C[C@H](N(C)C)[C@H](O[C@H]3C[C@H](O)[C@H](O[C@H]4CCC(=O)[C@H](C)O4)[C@H](C)O3)[C@H](C)O2)c2c(cc3c(c2O)C(=O)c2c(O)cccc2C3=O)[C@H]1C(=O)OC [aclarubicin] |  | growth inhibition when combined with decitabine (Bliss independence score sum across all dose combinations greater than zero) (PC-3 cancer cells): synergistic growth inhibition
CC[C@@]1(O)C(=O)OCc2c1cc1n(c2=O)Cc2cc3c(CN(C)C)c(O)ccc3nc2-1 [topotecan] | synergistic growth inhibition | 
Cn1cc(C2=C(c3cn(CCCSC(=N)N)c4ccccc34)C(=O)NC2=O)c2ccccc21 [RO31-8220] |  | growth inhibition when combined with decitabine (Bliss independence score sum across all dose combinations greater than zero) (PC-3 cancer cells): synergistic growth inhibition
Cc1ccc2c(=O)c3ccccc3n(CCCN)c2c1C.O=C(O)C(=O)O [ER27319] | synergistic growth inhibition | 
CO[C@H]1C[C@H](O[C@H]2CC[C@]3(C)[C@H]4CC[C@]5(C)[C@@H](C6=CC(=O)OC6)CC[C@]5(O)[C@@H]4CC[C@]3(O)C2)O[C@H](C)[C@H]1O [periplocymarin] |  | growth inhibition when combined with decitabine (Bliss independence score sum across all dose combinations greater than zero) (PC-3 cancer cells): synergistic growth inhibition
N.N.O=C([O-])C1(C(=O)[O-])CCC1.[Pt+2] [carboplatin] | synergistic growth inhibition | 
CCC1=C[C@@H]2CN(C1)Cc1c([nH]c3ccccc13)[C@@](C(=O)OC)(c1cc3c(cc1OC)N(C)[C@H]1[C@@](O)(C(=O)OC)[C@H](OC(C)=O)[C@]4(CC)C=CCN5CC[C@]31[C@@H]54)C2 [vinorelbine] | synergistic growth inhibition | 
COc1c(C)c2c(c(O)c1C/C=C(\C)CCC(=O)O)C(=O)OC2 [mycophenolic acid] | synergistic growth inhibition | 
C[C@@H]1O[C@@H](O[C@H]2C[C@@H](O)[C@]3(CO)[C@H]4[C@H](O)C[C@]5(C)[C@@H](C6=CC(=O)OC6)CC[C@]5(O)[C@@H]4CC[C@]3(O)C2)[C@H](O)[C@H](O)[C@H]1O [ouabain] | synergistic growth inhibition | 
COc1cc2ncn(-c3cc(OCc4ccccc4C(F)(F)F)c(C(N)=O)s3)c2cc1OC [GW843682] | synergistic growth inhibition | 
COc1cc2c(c(OC)c1OC)-c1ccc(OC)c(=O)cc1[C@@H](NC(C)=O)CC2 [colchicine] |  | growth inhibition when combined with decitabine (Bliss independence score sum across all dose combinations greater than zero) (PC-3 cancer cells): synergistic growth inhibition
CC(C)[C@@H]1NC(=O)[C@H](C)OC(=O)[C@@H](C(C)C)NC(=O)[C@@H](C(C)C)OC(=O)[C@H](C(C)C)NC(=O)[C@H](C)OC(=O)[C@@H](C(C)C)NC(=O)[C@@H](C(C)C)OC(=O)[C@H](C(C)C)NC(=O)[C@H](C)OC(=O)[C@@H](C(C)C)NC(=O)[C@@H](C(C)C)OC1=O [valinomycin] | synergistic growth inhibition | 

Reference: US12419900B2, “Induction of synthetic lethality with epigenetic therapy” (The Johns Hopkins University, priority 2017, dated 2025)
